From PubChem BioAssay (NCI) come the findings set out here.

Values joined by “and” are separate entries in the source; they are usually repeats but may differ in a detail not shown here. Equal values may be shown once.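 Assay format: 96-well plates, 48-hour exposure. GI50: concentration for 50% inhibition of growth. The concentration for full growth arrest is given as TGI.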 Bounds are passed on as bounds.

Some test systems named below: OVCAR-8 ovarian; A498 renal; TK-10 renal; MDA-MB-435; K-562 leukemia; HOP-92 NSCLC; MOLT-4 leukemia; HCT-15 colon; KM12 colon; IGROV1 ovarian; LOX IMVI melanoma; HS 578T breast; HL-60(TB) leukemia; 786-0 renal; SNB-75 CNS; OVCAR-5 ovarian; SNB-19 CNS.
Holding throughout (assay): growth of human tumour cells (NCI), 48 h

Consider `COc1ccc(NC(=O)CC(=O)NNC(Sc2ccccc2)c2cc(N=Nc3ccc(Br)cc3)ccc2O)cc1` (configuration not stated), for which the TGI in the assay with OVCAR-8 ovarian, in the assay on A498 renal, with TK-10 renal, in the assay with MDA-MB-435, in the assay on K-562 leukemia and in the assay with HOP-92 NSCLC was > 10 µM throughout. In addition, the TGI in the assay with MOLT-4 leukemia, in the assay with HCT-15 colon, in the assay on KM12 colon, with IGROV1 ovarian, with LOX IMVI melanoma and in the assay on HS 578T breast was > 10 µM throughout. The TGI in the assay on HL-60(TB) leukemia, in the assay on 786-0 renal, with SNB-75 CNS, in the assay on OVCAR-5 ovarian and with SNB-19 CNS was > 10 µM throughout.

`CC1OC(OC2C(OC(=O)[C@]34CCC(C)(C)C[C@H]3C3=CC[C@@H]5[C@@]6(C)CC[C@H](OC7OC(CO)C(O)C(O)C7OC7OC(CO)C(O)C(O)C7O)C(C)(C)[C@@H]6CC[C@@]5(C)[C@]3(C)CC4)OCC(O)C2O)C(O)C(O)C1OC1OCC(O)C(OC2OCC(O)C(O)C2O)C1O` (some centres not stated): the TGI with OVCAR-8 ovarian is 26.9 µM and 21.7 µM; in the assay on A498 renal it was 4.44 µM and 3.95 µM; in the assay on TK-10 renal, 21.1 µM and 21.8 µM; in the assay on MDA-MB-435, 3.59 µM and 3.22 µM; with K-562 leukemia it was 18.8 µM and 17.6 µM; in the assay on HOP-92 NSCLC, 5.81 µM and 4.97 µM. Further, the TGI in the assay with MOLT-4 leukemia is 22.4 µM and 26.6 µM; in the assay on HCT-15 colon, 27 µM and 26.8 µM; in the assay with KM12 colon, 11.8 µM and 12.5 µM; in the assay with IGROV1 ovarian it was 26.4 µM and 24.3 µM; with LOX IMVI melanoma, 24 µM and 23.6 µM; in the assay with HS 578T breast it was 30.3 µM and 29.3 µM. Besides, the TGI is 4.15 µM and 7.43 µM with HL-60(TB) leukemia; 18.9 µM and 19.7 µM with 786-0 renal; 17 µM and 20.8 µM with SNB-75 CNS; 16.7 µM and 16 µM in the assay with OVCAR-5 ovarian; 20.8 µM and 20.5 µM with SNB-19 CNS. Also, the GI50 in the assay with MOLT-4 leukemia is 2.87 µM and 9.41 µM; in the assay on HL-60(TB) leukemia it was 1 µM and 2.72 µM.

For `CCOC(=O)c1nc2ccc(C(F)(F)F)cc2nc1Nc1ccc(F)cc1`, the TGI in the assay with OVCAR-8 ovarian was > 100 µM; in the assay on A498 renal, > 100 µM; in the assay on TK-10 renal, > 100 µM; in the assay on MDA-MB-435 it was > 100 µM; in the assay on K-562 leukemia, > 100 µM; in the assay with HOP-92 NSCLC, 98.9 µM. For the same compound, the TGI in the assay with MOLT-4 leukemia was > 100 µM; in the assay on HCT-15 colon, > 100 µM; in the assay with KM12 colon it was > 100 µM; in the assay with IGROV1 ovarian, > 100 µM; in the assay on LOX IMVI melanoma, > 100 µM; in the assay with HS 578T breast, 73.8 µM. The TGI was > 100 µM in the assay with HL-60(TB) leukemia; > 100 µM in the assay with 786-0 renal; 84.3 µM in the assay with SNB-75 CNS; > 100 µM in the assay with OVCAR-5 ovarian; > 100 µM in the assay on SNB-19 CNS.

For the compound `Cc1cc(S(=O)(=O)Nc2n[nH]c(Nc3ccc4ccccc4c3)n2)c(S)cc1Cl`, the TGI is > 100 µM with OVCAR-8 ovarian; > 100 µM in the assay on A498 renal; > 100 µM in the assay on TK-10 renal; 84.2 µM with MDA-MB-435; > 100 µM in the assay on K-562 leukemia; > 100 µM in the assay on HOP-92 NSCLC. Moreover, the TGI with MOLT-4 leukemia is > 100 µM; with HCT-15 colon, > 100 µM; with KM12 colon, 95 µM; in the assay with IGROV1 ovarian it was > 100 µM; in the assay with LOX IMVI melanoma it was > 100 µM; with HS 578T breast, 69.9 µM. Besides, the TGI with HL-60(TB) leukemia, in the assay with 786-0 renal, in the assay with SNB-75 CNS, in the assay with OVCAR-5 ovarian and with SNB-19 CNS was > 100 µM each time.

Turning to `CN1N=C(c2ccccc2)C(C(c2ccccc2[N+](=O)[O-])C2C(=O)N(C)N=C2c2ccccc2)C1=O` (configuration not stated), the TGI in the assay on OVCAR-8 ovarian, with A498 renal, with TK-10 renal, with MDA-MB-435, in the assay on K-562 leukemia and in the assay with HOP-92 NSCLC was > 100 µM each time. The TGI was 72.7 µM in the assay on MOLT-4 leukemia; > 100 µM with HCT-15 colon; > 100 µM in the assay with KM12 colon; > 31.6 µM in the assay with IGROV1 ovarian; 77.4 µM with LOX IMVI melanoma; > 100 µM in the assay with HS 578T breast. Further, the TGI is 52 µM with HL-60(TB) leukemia; > 100 µM in the assay with 786-0 renal; > 100 µM in the assay with SNB-75 CNS; > 100 µM with OVCAR-5 ovarian; > 100 µM in the assay with SNB-19 CNS.

For the compound `CCOC(=O)c1nc2ccccc2nc1Nc1ccc(OC)cc1`, the TGI was > 100 µM with OVCAR-8 ovarian; 84.5 µM in the assay on A498 renal; > 100 µM in the assay on TK-10 renal; > 100 µM in the assay with MDA-MB-435; > 100 µM with K-562 leukemia; 54.4 µM in the assay with HOP-92 NSCLC. In addition, the TGI in the assay with MOLT-4 leukemia, in the assay with HCT-15 colon, in the assay on KM12 colon, in the assay with IGROV1 ovarian, in the assay with LOX IMVI melanoma and in the assay on HS 578T breast was > 100 µM throughout. Also, the TGI in the assay with HL-60(TB) leukemia is > 100 µM; with 786-0 renal, > 100 µM; with SNB-75 CNS, 93.2 µM; in the assay on OVCAR-5 ovarian, > 100 µM; in the assay on SNB-19 CNS, 83.9 µM.

Regarding `COC(=O)c1nn2ccc3ccccc3c2c1C(=O)OC`, the TGI in the assay with OVCAR-8 ovarian, with A498 renal, in the assay on TK-10 renal, with MDA-MB-435, with K-562 leukemia and with HOP-92 NSCLC was > 100 µM throughout. The TGI in the assay on MOLT-4 leukemia, with HCT-15 colon, in the assay with KM12 colon, in the assay on IGROV1 ovarian, in the assay on LOX IMVI melanoma and with HS 578T breast was > 100 µM in each case. The TGI in the assay with HL-60(TB) leukemia, in the assay on 786-0 renal, in the assay with SNB-75 CNS, with OVCAR-5 ovarian and with SNB-19 CNS was > 100 µM each time.

With `CC(C)[Si]1(C(C)C)OCC2OC(n3c(C(=O)c4ccccc4)cc(=O)[nH]c3=O)CC2O[Si](C(C)C)(C(C)C)O1` (configuration not stated), the TGI in the assay on OVCAR-8 ovarian was 4.43 µM; in the assay with A498 renal, 24.8 µM; in the assay with TK-10 renal it was 9.23 µM; in the assay on MDA-MB-435 it was 10.4 µM; in the assay on K-562 leukemia, > 100 µM; with HOP-92 NSCLC, 7.14 µM. The TGI with MOLT-4 leukemia was found to be 4.76 µM; with HCT-15 colon it was 7.89 µM; in the assay with KM12 colon, 8.51 µM; in the assay on IGROV1 ovarian it was 10.1 µM; in the assay on LOX IMVI melanoma, 3.93 µM; in the assay with HS 578T breast it was 5.5 µM. For the same compound, the TGI with HL-60(TB) leukemia is > 28.6 µM; in the assay on 786-0 renal, 9.87 µM; in the assay on SNB-75 CNS, 6.7 µM; in the assay with OVCAR-5 ovarian it was 10.1 µM; with SNB-19 CNS it was 22.4 µM.

In the case of `CN=C(N)N=Nc1c(O)[nH]c2ccccc12`, the TGI in the assay with OVCAR-8 ovarian, in the assay on A498 renal, in the assay on TK-10 renal, in the assay with MDA-MB-435, with K-562 leukemia and in the assay with HOP-92 NSCLC was > 100 µM throughout. Besides, the TGI with MOLT-4 leukemia, in the assay on HCT-15 colon, in the assay on KM12 colon, in the assay on IGROV1 ovarian, with LOX IMVI melanoma and in the assay with HS 578T breast was > 100 µM each time. The TGI in the assay on HL-60(TB) leukemia, in the assay with 786-0 renal, with SNB-75 CNS, with OVCAR-5 ovarian and with SNB-19 CNS was > 100 µM in each case.

Take `Oc1cnc2c(O)cccc2c1`: the TGI in the assay on OVCAR-8 ovarian was 80.5 µM; with A498 renal, > 100 µM; in the assay with TK-10 renal, > 100 µM; in the assay with MDA-MB-435, > 100 µM; in the assay with K-562 leukemia, > 100 µM; in the assay on HOP-92 NSCLC, > 100 µM. Besides, the TGI in the assay with MOLT-4 leukemia, with HCT-15 colon, in the assay with KM12 colon, in the assay with IGROV1 ovarian, in the assay on LOX IMVI melanoma and in the assay with HS 578T breast was > 100 µM each time. In addition, the TGI was > 100 µM in the assay on HL-60(TB) leukemia; > 100 µM in the assay on 786-0 renal; 79.9 µM in the assay on SNB-75 CNS; > 100 µM in the assay on OVCAR-5 ovarian; > 100 µM in the assay with SNB-19 CNS.
